Measurements as given in a melting point compilation (Tetko et al.; mined from patent text by program, amines drawn as free bases though some values may be those of a salt).

Row | Compound | melting point
1 | C=CON=C(C(=O)OCC)c1csc(NC(c2ccccc2)(c2ccccc2)c2ccccc2)n1 | 114 °C
2 | Oc1ccc(-c2ccc(O)cc2I)c(I)c1 | 171 to 172 °C
3 | Cc1nn(-c2cc(O)c(Cl)cc2F)c(C)c1C | 158 to 160 °C
4 | CC(C)(C(=O)O)c1ccc(C(O)CCCN2CCC(=C3c4ccccc4CCc4ccccc43)CC2)cc1 (stereo unspecified) | 135 to 137 °C
5 | NS(=O)(=O)c1ccc(-c2[nH]c3ccc(F)cc3c2-c2ccccc2)cc1 | 302 to 304 °C
6 | CC(C)(C)c1cc(-c2nn(CC3COC(=O)O3)c3ncccc23)cc(C(C)(C)C)c1O (stereo unspecified) | 140 to 141 °C
7 | COc1ccc2cc(C#CC(C)N(O)C(N)=O)ccc2c1 (stereo unspecified) | 181 to 183 °C
8 | COc1ccc(CNc2nn(CC(=O)O)c(=O)c3ccc(C#N)cc23)cc1Cl | 173 to 175 °C
9 | NC(=Nc1ccc(CNC(=O)CCCCC2CCSS2)cc1)c1cccs1 (stereo unspecified) | 152 °C
10 | NS(=O)(=O)NCC1COc2ccccc2O1 (stereo unspecified) | 97.5 to 98.5 °C
11 | COc1ccc(-n2nc(Sc3cc(C)ccc3C)c(C)c(C#N)c2=O)cc1 | 140 to 142 °C
12 | CNC(=O)Oc1cc(C)c(NC(=O)COC)c(C)c1 | 180 to 182 °C
13 | Cc1ccc(S(=O)(=O)OCCc2c(F)ccc(F)c2F)cc1 | 73 to 74 °C
14 | COc1ccc(Br)c2c1C[C@H](N(Cc1ccccc1)Cc1ccccc1)CC2 | 100 to 101 °C
15 | CC1(C)OC(=O)Nc2ccc(-c3cc([N+](=O)[O-])cc([N+](=O)[O-])c3)cc21 | 297 to 298 °C
16 | COc1cc(OC)c2c(-c3cc(F)cc(F)c3)coc2c1 | 102 to 103 °C
17 | O=S(=O)(Nc1ccc2c(OCc3cccc(-c4ccc(F)cc4)n3)cccc2c1)C(F)(F)F | 173 to 174 °C
18 | COc1cc(C)c(C)[nH]c1=O | 215 to 219 °C
19 | Cn1c(COc2ccc(CC3SC(=O)N(C(c4ccccc4)(c4ccccc4)c4ccccc4)C3=O)cc2)nc2cc(Cl)cnc21 (stereo unspecified) | 82 to 84 °C
20 | COc1cccc([C@H]2O[C@H](CC(=O)NCc3ccc(CC(=O)O)cc3)C(=O)N(CC(C)(C)CO)c3ccc(Cl)cc32)c1OC | 129 to 132 °C
21 | CSc1c[nH]c2ncccc12 | 115 to 116 °C
22 | Cc1ncsc1C(=O)CCCSc1nnnn1C | 64 to 65 °C
23 | Cc1cc(C(=O)N(C)C)c(O)c([N+](=O)[O-])c1 | 160 to 162 °C
24 | N#Cc1ccc2c(c1)[nH]c(=S)n2NC(=O)c1ccc(Cl)c(S(N)(=O)=O)c1 | 315 °C
25 | COc1ccc(CCOc2ccnc(Cl)c2)cc1OC | 116 to 117 °C
26 | CNc1cc(F)c(C=O)cc1F | 133 to 138 °C

Row | Compound | melting point
27 | CCNC(=O)[C@H](C)C[C@H](O)[C@H](CC1CCCCC1)NC(=O)[C@H](Cc1cscn1)NC(=O)[C@@H](CC(=O)N(C)Cc1ccccc1)Cc1ccccc1 | 148 to 150 °C
28 | O=CNN(C1=NCCS1)c1ccccc1 | 140 to 141 °C
29 | CCOC(=O)c1cc(O)c(C(=O)c2ccccc2)c([N+](=O)[O-])c1 | 167 to 168 °C
30 | Cc1cc(-c2ccccc2)c(C)cc1-c1ccccc1 | 301 to 304 °C
31 | Cc1ccccc1-n1c(-c2sc(Nc3ccccc3)nc2-c2ccccc2)nc2ccccc2c1=O | 141 to 143 °C
32 | O=C(Nc1ccc(Oc2ccnc(N3CCC3)n2)c2ccccc12)c1cc(F)cc(N2CCOCC2)c1 | 196 to 197 °C
33 | COc1cc(C=C(C(=O)O)c2ccc(O)cc2)cc(OC)c1 | 135 to 137 °C
34 | Nc1ncnc2c1ncn2C1OC(CNC=O)C(O)C1O (stereo unspecified) | 212 to 213 °C
35 | CCOC(=O)Cc1cc(C)c(C(=O)c2ccc(Cl)cc2)n1C | 101 to 104 °C
36 | CC1(C#N)C(=O)C2=C(c3ccccc3)NC(=O)C2=C1c1ccccc1 (stereo unspecified) | 299 to 301 °C
37 | Cn1cc(CO)c(=O)c2ccc(F)cc21 | 219 to 222 °C
38 | CCOC(=O)c1ccccc1C(=O)c1cccc(NC(=O)c2ccn3c2CSC3c2cccnc2)c1 (stereo unspecified) | 150 °C
39 | CCCCCCCc1ccc(NS(=O)(=O)c2ccc(N3CCNC3=O)cc2)cc1 | 188 to 190 °C
40 | CC1Nc2ccc(-c3csc(C#N)c3)cc2C2(CCCCC2)O1 (stereo unspecified) | 111 to 112 °C
41 | CCOC(=O)C=CN1CCCC1 | 37.5 to 39.5 °C
42 | CCOCc1nc2c(N)nc3ccccc3c2n1CCCCS(=O)(=O)NC(C)C | 146 to 147 °C
43 | Cc1nn(C)c(OC(=O)CCl)c1C(=O)c1ccc(Cl)cc1Cl | 120 to 122 °C
44 | CN1CC2CC(=O)NC3C=CC=C4Cc5ccccc5C(C1)C2N43 (stereo unspecified) | 165 to 168 °C
45 | CCCCc1c(C(=O)O)sc2ccc([N+](=O)[O-])cc12 | 238 to 240 °C
46 | Cc1nc2cc3c(cc2s1)C1(CO3)C(=O)N(Cc2ncc(Cl)n2C)c2ccccc21 (stereo unspecified) | 177 to 178 °C
47 | CC1(C)NC(=S)C1(C)C | 117 to 118 °C
48 | CC(=O)N(C)c1c(N(C)C)cc(C(=O)CS(C)(=O)=O)cc1N(C)C | 120 °C
49 | CN1CCN(Cc2ccccc2-c2cc3c(Nc4ccc5[nH]ccc5c4)c(C#N)cnc3s2)CC1 | 226 to 228 °C
50 | Clc1ccc2c(c1)C1(CO1)c1ccccc1C21CO1 (stereo unspecified) | 61 to 67 °C
51 | COC(=O)c1ccc(Cn2cc(/C=C/C(=O)N3CCCC3)c3ccc(/C=C/C(=O)N4CCCC4)cc32)c(OC)c1 | 226 to 228 °C
52 | COC(=O)c1ccc2occ(-c3cc(F)ccc3F)c2c1 | 161 to 162 °C

Row | Compound | melting point
53 | CCCCCCCCCCCCCCOC(=O)c1ccc(OC)c(N)c1 | 54 to 56 °C
54 | CN1Cc2c(F)ncn2-c2ccccc2C1=O | 171 to 172 °C
55 | CCC1(C)NC(=O)C(c2c(C)cc(C)cc2C)C1=O (stereo unspecified) | 137 to 142 °C
56 | COc1cc2c(cc1OC)N(C(=O)OCc1ccccc1)C(C)C(=CO)C2=O (stereo unspecified) | 106 to 110 °C
57 | CCC(CC)c1ccc(Cl)c2nc3n(c12)CCCCN3c1ccc(Cl)cc1 | 133 to 135 °C
58 | COc1cccc(CCOc2ccc(C(=O)N/C(=C\c3ccc(Cl)cc3)C(=O)NCCO)cc2)c1 | 54 to 56 °C
59 | O=C(Nc1cccc2c1C(=O)c1c-2n[nH]c1C1CCN(C(=O)N2C[C@@H]3C[C@H]2CN3)CC1)NN1CCOCC1 | 196 to 198 °C
60 | CC(C)(C)OC(=O)NC(=O)C(c1ccccc1)c1ccccc1 | 160 to 162 °C
61 | CN(C)c1ccc(-c2cccc3c2C2(COc4cc5c(cc42)OCCO5)C(=O)N3Cc2ccccn2)cn1 (stereo unspecified) | 187 to 188 °C
62 | Cc1cc(C#N)c(=O)[nH]c1C | 258 to 263 °C
63 | CCc1cc(C(N)=O)nn1CC | 129 to 131 °C
64 | Nc1c(I)cc(Cl)cc1I | 127 to 129 °C
65 | O=C(O)c1ccc(F)c2c1C=CCO2 | 224 to 226 °C
66 | CCCCc1cc(SCc2ccc(-c3ccc(C(F)(F)F)cc3)cc2)ccc1OCC(=O)O | 155 to 157 °C
67 | COc1cc(OC)c2c(c1)S(=O)(=O)N(COC(=O)c1c(Cl)cccc1Cl)C2=O | 200 to 201 °C
68 | Cc1ccc(-c2ccc(C(=O)Nc3ccc4cc(CN5CCCC5)cnc4c3C)cc2)s1 | 220 to 221 °C
69 | CN(Cc1cc2c3c(c1)c(=O)c(C(=O)NCc1ccc(F)cc1)cn3CC(=O)N2C)C[C@@H](O)c1cc2ccccc2o1 | 94 to 96 °C
70 | Cc1ccc(S(=O)(=O)On2nnc3ccc(Cl)cc32)cc1 | 94 to 96 °C
71 | CCc1c(-c2ccc(O)cc2)c2ccc3c(N)ccc1n32 | 147 to 149 °C
72 | N#CCN1CCC(c2n[nH]c3cc(F)ccc23)CC1 | 149 to 151 °C
73 | CCOC(=O)c1cnn(-c2cc(Cl)cc(Cl)c2)c1C#N | 101 to 103 °C
74 | COc1nc(NCS(=O)(=O)c2ccc(C)cc2)nc(N(C)C)n1 | 188 to 190 °C
75 | CCN1C(=O)C(C)(C)C(=O)N(C)c2cc(CN(CCn3ccc4oc(C)cc4c3=O)Cc3ncoc3C)ccc21 | 129 to 130 °C
76 | COCC#Cc1ncn2c1CN(C)C(=O)c1ccccc1-2 | 114 to 115 °C
77 | CCC(=O)NCCC1CCc2ccn3nccc3c21 (stereo unspecified) | 72 to 73 °C
78 | N#CCOc1cc2c(cc1-c1ccc(F)cc1)NC(=O)CC(c1cccc(-n3ccnc3)c1)=N2 | 164 °C

Row | Compound | melting point
79 | CC(=O)c1cc2c(c(O)c1O)OC(C)(C)CC2C (stereo unspecified) | 153 to 154 °C
80 | Cn1c(C=O)cc2cccc(F)c21 | 61 to 63 °C
81 | COc1c(F)cc2c(=O)c(C(=O)O)cn(-c3cc(N)c(F)cc3F)c2c1C | > 280 °C
82 | Brc1ccc2nc(NC3=NCCN3)[nH]c2c1 | 264 to 266 °C
83 | NS(=O)(=O)c1cc(C2OCCO2)cs1 | 225 to 227 °C
84 | COc1cccnc1Oc1cccc(C#N)c1 | 88 to 89 °C
85 | O=C(O)C1COc2ccc(O)cc2O1 (stereo unspecified) | 204 °C
86 | O=c1[nH]c2cc(Cl)ccc2c(=O)n1S(=O)(=O)c1ccccc1Cl | 275 to 276 °C
87 | O=C(c1cncc(Br)c1)N1CCOCC1 | 49 to 51 °C
88 | NC1(Cc2ccc(C(=O)Nc3ccncc3)cc2)C=CC=CC1 (stereo unspecified) | 76.8 to 77.6 °C
89 | O=C1c2cccc3cccc(c23)C(=O)N1CCN1CCC(O)(c2ccccc2)CC1 | 177 to 179 °C
90 | Nc1cccc([C@H]2C[C@H]2NC(=O)Nc2ccc(Cl)cn2)c1 (racemic) | 178 °C
91 | COc1cccc(C2(c3cccc(OC)c3)CC2C=CC(=O)NC(C)CCCc2cccnc2)c1 (single isomer, unassigned) | 104 to 106 °C
92 | O=C1CC(CP(=O)(c2ccccc2)c2ccccc2)O1 (stereo unspecified) | 154 to 155 °C
93 | COc1ccc(NC(=O)c2ccccc2N)cc1 | 116 to 117 °C
94 | CCOC(=O)c1cnn(-c2ccccn2)c1S(N)(=O)=O | 73 to 76 °C
95 | CCOC(=O)CNC(=O)C(C)(C)c1ccc(C2=NC(C)(C)Cc3cc(OC)c4c(c32)CC(C)(C)O4)cc1 | 133 to 138 °C
96 | O=C1Nc2cnc(N3CCN(c4ncccn4)CC3)nc2S/C1=C/c1ccc([N+](=O)[O-])cc1 | 320 °C
97 | COc1ccc([C@@H]2[C@@H](CCCBr)C(=O)N2c2ccc(OC)cc2)cc1 | 70 to 73 °C
98 | CCN(O)C(=O)Cc1ccc2c(c1)C(=O)c1ccccc1CO2 | 119 to 121 °C
99 | CSc1sc(C(N)=O)c2c1-c1sc(C(N)=O)cc1CC2 | > 300 °C
100 | CCCCOC(=O)c1[nH]c(=O)c2cc(OC(C)C)ccc2c1O | 118 to 123 °C
101 | CCN1CC(NC(=O)c2cc(Cl)c(N)cc2OC)CN1CC | 117 to 119 °C
